Assay results taken from patent publication US9963456B2, “Pyrrolopyrimidine compound or salt thereof and compositions containing the pyrrolopyrimidine compound or salt thereof” (TAIHO PHARMACEUTICAL CO., LTD., priority 2014, dated 2018).
Each block holds one molecule with its values, some of them ahead of it.

Experiments:
[1] = test system: human osteo- and soft tissue sarcoma SJCRH30 cell line; test: Cell growth inhibition 2, SJCRH30; format: cell-based; conditions: 384-well plate
carbonic anhydrase II = carbonic anhydrase II (Homo sapiens (Human), UniProt P00918); test: Carbonic anhydrase II enzyme activity inhibition (4-NPA esterase activity); format: biochemical; conditions: for IC50: 4-nitrophenyl acetate esterase activity, absorbance at 405 nm
[2] = test system: human acute lymphoblastic leukemia (ALL) CCRF-CEM cell lines; test: Antitumor effect on tumor cells transplanted into mice 3; format: in vivo; conditions: for RTV comparison with the control on day 15 / T/C15 / RTV comparison with the Comparative Example / BWC15 Mean ± SD: CCRF-CEM xenograft in nude mice; for RTV comparison with the control on day 15 / RTV comparison with the Comparative Example: compound hydrochlorides intravenously, Dunnett's test; for T/C15 / BWC15 Mean ± SD: 50 mg/kg/day intravenous; for T/C15: administration days 1, 8, day 15; for BWC15 Mean ± SD: body weight change rate, days 1, 8, day 15; for change of the body weight compared with the control: CCRF-CEM xenograft mice
Method: (§1) The length and the width of the implanted tumor and the body weight were measured. The tumor volume (TV) was calculated using the following equation (equation D). TV(mm3)=(length×width^2)/2, wherein the unit of length and width is mm (equation D).
(§2) Thereafter, the length and the width of the tumor and the body weight (BWn) on day n were measured over time in the same manner, and the TVn of each mouse was calculated. Further, the relative tumor volume (RTVn) was calculated based on the TVn of each mouse using the following equation (equation E); the treatment/control (T/C) value (%) was calculated based on the mean RTVn of each drug administration group using the following equation (equation F); and the weight change rate (BWCn) was calculated using the following equation (equation G). RTVn=TVn/TV1 (equation E) T/Cn(%)=(mean RTV of each drug administration group on the last day of the test)/(mean RTV of the control group on the last day of the test)×100 (equation F) BWCn (%)=(BWn−BW1)/BW1×100 (equation G) FIGS. 1 and 2, and Table 21 below show the results.
The tumor growth inhibitory effects on human tumors were evaluated as in Test Example 5, except that the compound hydrochloride obtained in Example 122, the compound hydrochloride (Example 64), and human acute lymphoblastic leukemia (ALL) CCRF-CEM cell lines were used, and the animals were assigned to each group in accordance with a stratified randomization procedure when the TV reached 140 to 380 mm3.
At this time, the cell lines were washed in PBS, and suspended in 50% PBS and 50% Matrigel basement membrane matrix (#356237; produced by BD Biosciences) at a concentration of 1×10^8 cells/mL. 0.1 mL of this cell suspension was subcutaneously implanted to the right chest of 6-week-old BALB/cAJcl-nu/nu mice (nude mice) (produced by CLEA Japan, Inc.). The compound hydrochloride (Example 122) was intravenously administered in an amount of 5 mL per 1 kg of body weight on days 1 and 8, and the compound hydrochloride (Example 133) was intravenously administered in an amount of 5 mL per 1 kg of body weight on days 1 and 8.

[3] = test system: Human colon cancer HCT-116 cell lines; test: Antitumor effect on tumor cells transplanted into mice 2; format: in vivo
[4] = test system: human acute lymphoblastic leukemia (ALL) CCRF-CEM cell lines; test: Antitumor effect on tumor cells transplanted into mice 3; format: in vivo; conditions: CCRF-CEM xenograft in nude mice, 120 mg/kg/day intravenous
[5] = test system: Human colon cancer HCT-116 cell lines; test: Antitumor effect on tumor cells transplanted into mice 1; format: in vivo; conditions: for T/C15 (%): HCT-116 s.c. in BALB/cAJcl-nu/nu mice; for RTV15 comparison with the control: Dunnett's test; for BWC15 (%) Mean ± SD: body weight change
Method: Human colon cancer HCT-116 cell lines were washed in PBS and suspended at a concentration of 4×10^7 cells/mL. 0.1 mL of this cell suspension was subcutaneously implanted in the right chest of 6-week-old BALB/cAJcl-nu/nu mice (produced by CLEA Japan, Inc.).
as §1
When the TV reached 100 to 300 mm3, the animals were assigned to each group in accordance with a stratified randomization procedure. The day was considered day 1, the TV on the day was considered TV1, and the body weight on the day was considered BW1.
A required amount of the test compound was weighed to prepare an administration solution.
as §2

[6] = molecular target: NAE (heterodimer of APPBP1 and UBA3) (Homo sapiens (Human), UniProt Q8TBC4); test: Nedd8 conjugation inhibitory activity (AlphaScreen assay); format: biochemical; conditions: purified NAE, GST-UBC12, Biotin-Nedd8, ATP
[7] = 120 mg/kg/day intravenously on days 1, 4, 8, 11, day 15
[8] = 50 mg/kg/day intravenously on days 1, 4, 8, 11, day 15

Sequence of NAE (heterodimer of APPBP1 and UBA3) (Q8TBC4 whole entry): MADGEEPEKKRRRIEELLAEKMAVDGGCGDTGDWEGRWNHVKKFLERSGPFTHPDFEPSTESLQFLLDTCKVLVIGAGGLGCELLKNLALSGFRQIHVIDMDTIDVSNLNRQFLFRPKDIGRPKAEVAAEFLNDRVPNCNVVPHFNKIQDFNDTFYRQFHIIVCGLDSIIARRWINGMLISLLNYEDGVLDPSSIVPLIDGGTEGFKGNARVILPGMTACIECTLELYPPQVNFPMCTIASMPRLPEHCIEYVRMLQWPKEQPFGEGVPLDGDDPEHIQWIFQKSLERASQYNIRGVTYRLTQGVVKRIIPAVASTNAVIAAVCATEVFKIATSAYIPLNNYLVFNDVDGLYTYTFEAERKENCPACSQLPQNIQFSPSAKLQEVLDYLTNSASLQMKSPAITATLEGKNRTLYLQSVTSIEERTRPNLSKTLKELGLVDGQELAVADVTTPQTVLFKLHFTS
Sequence of NAE (heterodimer of APPBP1 and UBA3) (Q13564 whole entry partner): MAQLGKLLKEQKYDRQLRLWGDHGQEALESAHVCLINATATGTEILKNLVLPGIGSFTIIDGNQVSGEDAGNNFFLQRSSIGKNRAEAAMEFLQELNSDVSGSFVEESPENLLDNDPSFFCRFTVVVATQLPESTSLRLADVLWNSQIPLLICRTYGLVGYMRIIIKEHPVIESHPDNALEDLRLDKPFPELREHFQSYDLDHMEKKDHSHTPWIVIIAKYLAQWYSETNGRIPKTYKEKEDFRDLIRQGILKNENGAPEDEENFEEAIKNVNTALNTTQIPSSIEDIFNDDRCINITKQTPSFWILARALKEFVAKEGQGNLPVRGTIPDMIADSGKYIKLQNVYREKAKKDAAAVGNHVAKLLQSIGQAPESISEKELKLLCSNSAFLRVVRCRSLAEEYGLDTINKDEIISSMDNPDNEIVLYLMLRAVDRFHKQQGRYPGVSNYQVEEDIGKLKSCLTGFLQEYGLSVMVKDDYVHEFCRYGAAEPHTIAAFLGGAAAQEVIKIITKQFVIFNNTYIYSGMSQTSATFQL

IC50 [1]: > 10 µM
IC50 (carbonic anhydrase II): 0.012 µM
SMILES: NS(=O)(=O)OC[C@@H]1C[C@@H](n2ccc3c(N[C@H]4CCc5ccccc54)ncnc32)C[C@@H]1O [Comparative Example, N-[(1S)-1-indanyl]-7-[(1R)-3α-hydroxy-4α-(sulfamoyloxymethyl)cyclopentyl]-7H-pyrrolo[2,3-d]pyrimidin-4-amine, reference compound]

inhibitory activity against carbonic anhydrase II (carbonic anhydrase II): exhibited inhibitory activity
SMILES: NS(=O)(=O)OC[C@@H]1C[C@@H](n2ccc3c(N[C@H]4CCc5ccccc54)ncnc32)C[C@H]1O [Comparative Example, N-[(1S)-1-indanyl]-7-[(1R)-3α-hydroxy-4α-(sulfamoyloxymethyl)cyclopentyl]-7H-pyrrolo[2,3-d]pyrimidin-4-amine, reference compound]
RTV comparison with the control on day 15 [2]: significantly lower than that of the control
T/C15 ([3]; HCT-116 xenograft in mice, 120 mg/kg/day intravenous, administration days 1, 4, 8, 11, day 15): 51%
RTV15 comparison with the control ([3]; HCT-116 xenograft, hydrochloride compound of Example 55, Dunnett's test): significantly lower than that of the control
BWC15 Mean ± SD ([3]; body weight change rate, HCT-116 xenograft in mice, 120 mg/kg/day intravenous, days 1, 4, 8, 11, day 15): −8.4 ± 3.2%
T/C15 ([4]; administration days 1, 4, 8, 11, day 15): 47%
BWC15 Mean ± SD ([4]; body weight change rate, days 1, 4, 8, 11, day 15): 6.1 ± 2.6%
T/C15 (%) [5, 7]: 36%
RTV15 comparison with the control ([5]; HCT-116 xenograft): significantly lower than that of the control
BWC15 (%) Mean ± SD [5, 7]: −14.3 ± 5.1%

SMILES: Nc1ncnc2c1c(C#Cc1c(F)cccc1F)cn2[C@@H]1O[C@H](CNS(N)(=O)=O)[C@@H](O)[C@H]1O [Example 1, 4-Amino-5-[2-(2,6-difluorophenyl)ethynyl]-7-[(2R,3R,4S,5R)-3,4-dihydroxy-5-[(sulfamoylamino)methyl]tetrahydrofuran-2-yl]pyrrolo[2,3-d]pyrimidine]
T/C15 (%) [5, 8]: 23%
change of the body weight compared with the control ([5]; HCT-116 xenograft mice): within an acceptable degree
RTV comparison with the Comparative Example ([5]; HCT-116 xenograft, Aspin-Welch's t-test): significantly lower than that of the Comparative Example
RTV15 comparison with the control ([5]; HCT-116 xenograft): significantly lower than that of the control
BWC15 (%) Mean ± SD [5, 8]: −11.8 ± 4.7%

SMILES: CN1CCOc2c1ccc(F)c2C#Cc1cn([C@@H]2O[C@H](CNS(N)(=O)=O)[C@@H](O)[C@H]2O)c2ncnc(N)c12 [Example 64, 8-[2-[4-Amino-7-[(2R,3R,4S,5R)-3,4-dihydroxy-5-[(sulfamoylamino)methyl]tetrahydrofuran-2-yl]pyrrolo[2,3-d]pyrimidin-5-yl]ethynyl]-7-fluoro-4-methyl-2,3-dihydro-1,4-benzoxazine]
T/C15 [2]: 8%
RTV comparison with the Comparative Example [2]: significantly lower than that of the Comparative Example
RTV comparison with the control on day 15 [2]: significantly lower than that of the control
BWC15 Mean ± SD [2]: 4.1 ± 1.6%
IC50 [6]: 0.0094 µM
IC50 (carbonic anhydrase II): > 1 µM

SMILES: Nc1ncnc2c1c(C#Cc1c(F)cc(N3CC[C@@H](O)C3)cc1F)cn2[C@@H]1C[C@H](CNS(N)(=O)=O)[C@@H](O)[C@H]1O [Example 120, 4-Amino-5-[2-[2,6-difluoro-4-[(3R)-3-hydroxypyrrolidin-1-yl]phenyl]ethynyl]-7-[(1R,2S,3R,4R)-2,3-dihydroxy-4-[(sulfamoylamino)methyl]cyclopentyl]pyrrolo[2,3-d]pyrimidine]
RTV comparison with the control on day 15 [2]: significantly lower than that of the control
change of the body weight compared with the control [2]: almost the same as that of the control
IC50 [6]: 0.0043 µM
IC50 (carbonic anhydrase II): > 1 µM

SMILES: CN1CCOc2c1ccc(F)c2C#Cc1cn([C@@H]2C[C@H](CNS(N)(=O)=O)[C@@H](O)[C@H]2O)c2ncnc(N)c12 [Example 122, 8-[2-[4-amino-7-[(1R,2S,3R,4R)-2,3-dihydroxy-4-[(sulfamoylamino)methyl]cyclopentyl]pyrrolo[2,3-d]pyrimidin-5-yl]ethynyl]-7-fluoro-4-methyl-2,3-dihydro-1,4-benzoxazine]
T/C15 [2]: 6%
RTV comparison with the Comparative Example [2]: significantly lower than that of the Comparative Example
RTV comparison with the control on day 15 [2]: significantly lower than that of the control
BWC15 Mean ± SD [2]: 6.0 ± 4.5%
IC50 [6]: 0.02 µM
IC50 (carbonic anhydrase II): > 1 µM

SMILES: Nc1ncnc2c1c(C#Cc1cccc3ccccc13)cn2[C@@H]1O[C@H](COS(N)(=O)=O)[C@@H](O)[C@H]1O [Example 133, [(2R,3S,4R,5R)-5-[4-Amino-5-[2-(1-naphthyl)ethynyl]pyrrolo[2,3-d]pyrimidin-7-yl]-3,4-dihydroxy-tetrahydrofuran-2-yl]methyl sulfamate]
RTV comparison with the control on day 15 [2]: significantly lower than that of the control
change of the body weight compared with the control [2]: almost the same as that of the control
IC50 [6]: 0.025 µM
